What was measured:
Format in all cases: in vivo
Rhipicephalus microplus [1] = test: Rhipicephalus (Boophilus) microplus in-vitro contact test, larval cattle tick, strain Parkhurst (BOOPMI Cont); conditions: application rate 5 μg/cm^2 (=500 g/ha), tick larvae, after 48 hours, read-out: activity (efficacy: 100% means all larvae are dead or moribund)
Method: Rhipicephalus (Boophilus) Microplus—In-Vitro Contact Tests Larval Cattle Tick (Strain Parkhurst, Resistant Against Synthetic Pyrethroids) (BOOPMI Cont)
9 mg compound is solved in 1 mL acetone and diluted with acetone to the desired concentration. 250 μL of the test solution is filled in 25 mL glass test tubes and homogeneously distributed on the inner walls by rotation and tilting on a shaking device (2 h at 30 rpm). With a compound concentration of 900 ppm, an inner surface of 44.7 cm^2 and a homogeneous distribution, a dose of 5 μg/cm^2 is achieved.
After the solvent has evaporated, each test tube is filled with 20-50 cattle tick larvae (Rhipicephalus microplus), closed with a perforated lid and incubated in a horizontal position at 85% relative humidity and 27° C. in an incubator. After 48 hours efficacy is determined. The larvae are patted on the ground of the tubes and negative geotactic behavior is recorded.
An efficacy of 100% means all larvae are dead or moribund; 0% means no larvae are dead or moribund.

Spodoptera frugiperda = Spodoptera frugiperda spray test; conditions: in Zea mays, 168 h, read-out: activity (mortality)
Method: Spodoptera Fruaiperda—Spray Test
Solvent: 78.0 parts by weight acetone • 1.5 parts by weight dimethylformamide Emulsifier: alkylarylpolyglycol ether
(§1) To produce a suitable preparation of active compound, 1 part by weight of active compound is mixed with the stated amount of solvents and is diluted with water, containing an emulsifier concentration of 1000 ppm, to the desired concentration. Further test concentrations are prepared by dilution with emulsifier containing water.
Maize (Zea mays) leaf sections are sprayed with a preparation of the active ingredient of the desired concentration. Once dry, the leaf sections are infested with fall armyworm larvae (Spodoptera frugiperda).
After 7 days mortality in % is determined. 100% means all caterpillars have been killed and 0% means none of the caterpillars have been killed.

Ctenocephalides felis = Ctenocephalides felis oral test (CTECFE Oral); conditions: 48 h, read-out: activity (mortality)
Method: Ctenocephalides felis—Oral Test (CTECFE Oral) Solvent: dimethyl sulfoxide
To produce a suitable preparation of active compound, 10 mg of active compound are dissolved in 0.5 mL solvent, and the concentrate is diluted with cattle blood to the desired concentration.
Approximately 20 adult unfed cat fleas (Ctenocephalides felis) are placed in flea chambers. The blood chamber, sealed with parafilm on the bottom, are filled with cattle blood supplied with compound solution and placed on the gauze covered top of the flea chamber, so that the fleas are able to suck the blood. The blood chamber is heated to 37° C. whereas the flea chamber is kept at room temperature.
After 2 days mortality in % is determined. 100% means all the fleas have been killed; 0% means none of the fleas have been killed.

Diabrotica balteata = Diabrotica balteata spray test; conditions: 168 h, wheat seeds, larvae, after 7 days, read-out: activity (efficacy: 100% means all seedlings have grown up like in the untreated, uninfected control); for pest or weed control at 32 µg/disc, 100 g/ha: application rate 100 g/ha (=32 μg/well); for pest or weed control at 160 µg/disc, 500 g/ha: application rate 500 g/ha (=160 μg/well)
Method: Diabrotica balteata—Spray Test Solvent: 78.0 parts by weight of acetone • • 1.5 parts by weight of dimethylformamide Emulsifier: alkylarylpolyglycol ether
as §1, with “solvent,” for “solvents”, “and the concentrate” for “and”
Soaked wheat seeds (Triticum aestivum) are placed in a multiple well plate filled with agar and some water and are incubated for 1 day to germinate (5 seeds per well). The germinated wheat seeds are sprayed with a test solution containing the desired concentration of the active ingredient. Afterwards each unit is infected with 10-20 larvae of the banded cucumber beetle (Diabrotica balteata).
After 7 days efficacy in % is determined. 100% means all the seedlings have grown up like in the untreated, uninfected control; 0% means none of the seedlings have grown.

Rhipicephalus microplus [2] = test: Rhipicephalus (Boophilus) microplus injection test (BOOPMI Inj); conditions: 168 h, injection into adult engorged female ticks, egg deposition after 7 days, read-out: activity (efficacy: 100% means all eggs are infertile); for pest or weed control at 0.004 mg: application rate 4 μg/tick; for pest or weed control at 0.02 mg: application rate 20 μg/tick
Method: Rhipicephalus (Boophilus) Microplus—Injection Test (BOOPMI Inj)
Solvent: dimethyl sulfoxide
To produce a suitable preparation of active compound, 10 mg of active compound are dissolved in 0.5 mL solvent, and the concentrate is diluted with solvent to the desired concentration.
Five adult engorged female ticks (Rhipicephalus microplus) are injected with 1 μL compound solution into the abdomen. The ticks are transferred into replica plates and incubated in a climate chamber.
After 7 days egg deposition of fertile eggs is monitored. Eggs where fertility is not visible are stored in a climate chamber till hatching after about 42 days. An efficacy of 100% means all eggs are infertile; 0% means all eggs are fertile.

Rhipicephalus sanguineus = Rhipicephalus sanguineus in-vitro contact test, adult brown dog ticks (RHIPSA Cont); conditions: 48 h, after 48 hours, read-out: activity (efficacy: 100% means all ticks are dead or moribund); for pest or weed control at 1 µg/cm2, 100 g/ha: application rate 1 μg/cm^2 (=100 g/ha); for pest or weed control at 5 µg/cm2, 500 g/ha: application rate 5 μg/cm^2 (=500 g/ha)
Method: Rhipicephalus sanguineus-In-Vitro Contact Tests with Adult Brown Dog Ticks ([…] Cont) 9 mg compound is solved in 1 mL acetone and diluted with acetone to the desired concentration. 250 μL of the test solution is filled in 25 mL glass test tubes and homogeneously distributed on the inner walls by rotation and tilting on a shaking device (2 h at 30 rpm). […] After 48 hours efficacy is determined. The ticks are patted on the ground of the tubes and are incubated on a heating plate at 45-50° C. for at most 5 minutes. Immotile or uncoordinated moving ticks, which are not able to escape the heat by climbing upwards, are marked as dead or moribund.

[3] = test system: Musca domestica strain WHO—N; test: Musca domestica test (MUSCDO surface treatment & contact assay); conditions: surface concentration 4 mg/m^2, glazed tile, exposure 30 minutes, 24 hours after contact, read-out: efficacy (mortality)
Method: Musca domestica Test (MUSCDO Surface Treatment & Contact Assay) Solvent: Aceton+2000 ppm rapeseed oil methyl ester (RME)
(§2) In order to produce a sufficient, active ingredient containing solution it is necessary to solve the test compound in the solvent-mix (acetone at 2 mg/ml/RME 2000 ppm). This solution is pipetted onto a glazed tile and after evaporation of the acetone, adult flies of the species Musca domestica strain WHO—N are placed onto the dried surface. The exposure time is 30 minutes. Mortality in percent (%) is determined 24 hours after contact of the insects to the treated surface. 100% mortality means that all tested insects are dead, whereas 0% means that no insect died.

Myzus persicae = Myzus persicae oral test; conditions: 120 h, read-out: activity (mortality)
Method: Myzus persicae—Oral Test Solvent: 100 parts by weight acetone
To produce a suitable preparation of active compound, 1 part by weight of active compound is mixed with the stated amount of solvent, and the concentrate is diluted with water to the desired concentration.
50 μL compound solution is filled in microtiter plates and 150 μL IPL41 insect medium (33%+15% sugar) is added to obtain a total volume of 200 μL per well. Afterwards the plates are sealed with parafilm through which a mixed population of the green peach aphid (Myzus persicae) can suck on the compound preparation.
After 5 days mortality in % is determined. 100% means all aphids have been killed and 0% means none of the aphids have been killed.

[4] = test system: Aedes aegypti strain MONHEIM; test: Aedes aegypti test (AEDSAE surface treatment & contact assay); conditions: exposure 30 minutes, 24 hours after contact, read-out: efficacy (mortality); for mortality at 20 mg/m2: surface concentration 20 mg/m^2, glazed tile
Method: Aedes aegypti Test (AEDSAE Surface Treatment & Contact Assay) Solvent: Aceton+2000 ppm rapeseed oil methyl ester (RME)
as §2, with “mosquitoes” for “flies”, “Aedes aegypti” for “Musca domestica”, “MONHEIM” for “WHO—N”

SMILES	pest or weed control at 5 µg/cm2 (Rhipicephalus microplus [1])	mortality at 100 g/ha (Spodoptera frugiperda)	mortality at 100 ppm (Ctenocephalides felis)	pest or weed control at 32 µg/disc, 100 g/ha (Diabrotica balteata)	pest or weed control at 0.004 mg (Rhipicephalus microplus [2])	pest or weed control at 0.02 mg (Rhipicephalus microplus [2])	pest or weed control at 1 µg/cm2, 100 g/ha (Rhipicephalus sanguineus)	other results
C[C@H](NC(=O)c1cc(Cl)cc(Cl)c1)c1nc(C2CC2)nn1-c1ccc(C#N)cn1 [I-5]	100%	100%	100%	100%	100%	100%	–	mortality at 500 g/ha (Spodoptera frugiperda): 100%; pest or weed control at 160 µg/disc, 500 g/ha (Diabrotica balteata): 100%
CC(C)c1nc([C@H](C)NC(=O)c2cc(Br)cc(C(F)(F)F)c2)n(-c2ccc(C#N)cn2)n1 [I-21]	100%	100%	100%	80%	100%	100%	100%	pest or weed control at 5 µg/cm2, 500 g/ha (Rhipicephalus sanguineus): 100%
CC(C)c1nc([C@H](C)NC(=O)c2cc(Br)cc(C#N)c2)n(-c2ccc(C#N)cn2)n1 [I-25]	100%	100%	100%	100%	100%	100%	100%	pest or weed control at 5 µg/cm2, 500 g/ha (Rhipicephalus sanguineus): 80%
C[C@H](NC(=O)c1cc(Cl)cc(OC(F)(F)F)c1)c1nc(C2CC2)nn1-c1ccc(C#N)cn1 [I-33]	100%	–	–	100%	100%	100%	–	mortality at 4 mg/m2 [3]: 80 to 100%
C[C@H](NC(=O)c1cc(Br)cc(Br)c1)c1nc(C2CC2)nn1-c1ccc(C#N)cn1 [I-36]	100%	100%	90%	100%	100%	–	100%	–
C[C@H](NC(=O)c1cc(Br)cc(OC(F)(F)F)c1)c1nc(C2CC2)nn1-c1ccc(C#N)cn1 [I-41]	100%	100%	100%	–	100%	–	–	–
CC(NC(=O)c1cncc(C(F)(F)F)c1)c1nc(Br)nn1-c1ccc(C#N)cn1 (stereo not drawn) [I-50]	100%	–	–	–	–	–	–	mortality at 4 ppm (Myzus persicae): 100%
COc1nc([C@H](C)NC(=O)c2cc(OC(F)(F)F)cc(C(F)F)c2)n(-c2ccc(C#N)cn2)n1 [I-63]	100%	100%	–	100%	–	–	–	mortality at 4 ppm (Myzus persicae): 100%
C[C@H](NC(=O)c1cc(Cl)cc(OC(F)(F)F)c1)c1ncnn1-c1cc(NC(=O)c2ccc(F)cc2)ccn1 [II-20]	–	–	100%	–	100%	100%	–	–
Cc1nc([C@H](C)NC(=O)c2cc(Cl)cc(OC(F)(F)F)c2)n(-c2cc(C#N)ccn2)n1 [II-34]	100%	100%	–	100%	100%	100%	100%	pest or weed control at 5 µg/cm2, 500 g/ha (Rhipicephalus sanguineus): 100%; mortality at 500 g/ha (Spodoptera frugiperda): 100%; pest or weed control at 160 µg/disc, 500 g/ha (Diabrotica balteata): 100%; mortality at 4 mg/m2 ([4]; surface concentration 4 mg/m^2, glazed tile): 80 to 100%; mortality at 20 mg/m2 [4]: 80 to 100%
Cc1nc([C@H](C)NC(=O)c2cccc(Br)n2)n(-c2ccc(C#N)cn2)n1 [II-59]	–	–	90%	–	100%	100%	80%	pest or weed control at 5 µg/cm2, 500 g/ha (Rhipicephalus sanguineus): 80%
CC[C@H](NC(=O)c1cc(Cl)cc(C(F)(F)F)c1)c1nc(C)nn1-c1ncc(OC(F)F)cn1 [II-60]	100%	–	100%	–	100%	100%	–	–
C[C@H](NC(=O)c1cc(C(F)(F)F)cc(C(F)(F)F)c1)c1ncnn1-c1cc(C(=O)NCC(F)(F)F)ccn1 [II-87]	80%	100%	–	100%	–	–	–	mortality at 4 ppm (Myzus persicae): 100%
C[C@H](NC(=O)c1cc(C(F)(F)F)cc(C(F)(F)F)c1)c1ncnn1-c1cc(C(=O)NCC#N)ccn1 [II-89]	80%	–	–	100%	80%	–	–	mortality at 0.8 ppm (Myzus persicae): 100%; mortality at 4 ppm (Myzus persicae): 100%
C[C@H](NC(=O)c1cc(Cl)cc(C(F)F)c1)c1ncnn1-c1ccc(C#N)cn1 [II- 12]	–	–	–	–	–	–	–	mortality at 20 mg/m2 [4]: 80 to 100%
